For four compounds, Activity results are on record in ChEMBL document CHEMBL4715868, “Neurotrophic isoindolinones from the fruiting bodies of Hericium erinaceus” (2021).

The structures appear in SMILES notation. The source made the active and inactive calls. The rule behind the calls is not given here.

For experiment [1], the system named is C6. Kind of experiment: Upregulation of BDNF production in rat C6 cells co-cultured with N2a cells at 10 to 50 uM incubated for 24 hrs followed by cell transfer to N2a cells by Western blot analysis. As to conditions: dose 10-50 µM. It counts as functional, cell-based. Background: Immunoblotting shows a protein as a band on a membrane.
Experiment [2] deals with C6. As to the kind of experiment: Upregulation of Syp production in rat C6 cells co-cultured with N2a cells at 10 to 50 uM incubated for 24 hrs followed by cell transfer to N2a cells by Western blot analysis. The class given is functional, cell-based. As to conditions: dose 10-50 µM.
The subject of experiment [3] is C6. As to the kind of experiment: Upregulation of NGF production in rat C6 cells co-cultured with N2a cells at 10 to 50 uM incubated for 24 hrs followed by cell transfer to N2a cells by Western blot analysis. It counts as functional, cell-based. As to conditions: dose 10-50 µM.
The test system of experiment [4] is C6. Kind of experiment: Neurotrophic activity in rat C6 cells assessed as NGF production at 10 to 50 uM incubated for 24 hrs by ELISA. Conditions: dose 10-50 µM. It counts as functional, cell-based. A general note: An ELISA detects its analyte on a solid surface through an enzyme-linked reagent.
Experiment [5] is described as follows: Neurotrophic activity in […] N2a cells assessed as increase in NGF-mediated neurite outgrowth at 25 uM incubated for 24 hrs by cell imaging analysis relative to control. It counts as functional.
Experiment [6] is described as follows: Neurotrophic activity in […] N2a cells assessed as increase in NGF-mediated neurite outgrowth at 10 uM incubated for 24 hrs by cell imaging analysis relative to control. The class given is functional.

Take `COc1cc2c(c(O)c1C/C=C(\C)CC/C=C(\C)C(=O)O)COC2=O`: the outcome in the experiment with C6 [1], in the experiment with C6 [3] and with C6 [4] was Active. Moreover, the result in the experiment on C6 [2] was inactive.

On to `COc1cc2c(c(O)c1C/C=C(\C)CCC=C(C)C)C(=O)N(CCc1ccccc1)C2`, for which the result in the experiment on C6 [2] was inactive. The result in the experiment on C6 [3] and in the experiment on C6 [4] was Active. Also, the Activity in experiment [5] was 116.82%.

As for `COc1cc2c(c(O)c1CCO)CN(CCc1ccccc1)C2=O`, the outcome in the experiment on C6 [1] and with C6 [3] was Active. The result in the experiment on C6 [2] was inactive. Also, the Activity in experiment [5] is 122.82%; with C6 [4] it was “Dose-dependent effect”.

Turning to `CC1=C(/C=C/C(C)=C/C=C/C(C)=C/C(=O)O)C(C)(C)CCC1` [TRETINOIN], the Activity in experiment [6] is 112.08%.
